Measurements published in patent US12077503B2, “Substituted cyclic amides and their use as herbicides” (FMC CORPORATION, priority 2015, dated 2024).

Columns and labels:
Type in all cases: in vivo
Kochia (Kochia scoparia) [1] = experiment: Test A preemergence; conditions: for Plant response rating, Kochia: 125 g ai/ha, preemergence, 0 to 100 scale (0 no effect, 100 complete control); for Kochia plant response rating (0 to 100 scale, 0 is no effect, 100 is complete control): Preemergence, 500 g ai/ha, visual injury approx. 10 d
How it was run: (§1)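 Visual injury, scored on a 0–100 scale relative to untreated controls, was recorded about 10 d after application. Treatments were a preemergence soil spray over planted seeds or a postemergence spray on plants at the one- to two-leaf stage, 2 to 10 cm tall, all in loam soil–sand blend in the greenhouse.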

[2] = test system: barnyardgrass (Echinochloa crus-galli); experiment: Test A preemergence; conditions: for Plant response rating, Barnyardgrass: 125 g ai/ha, preemergence, 0 to 100 scale (0 no effect, 100 complete control); for Barnyardgrass plant response rating (0 to 100 scale, 0 is no effect, 100 is complete control): Preemergence, 500 g ai/ha, visual injury approx. 10 d
How it was run: as §1

[3] = test system: giant foxtail (Setaria faberii); experiment: Test A preemergence; conditions: for Plant response rating, Foxtail, Giant: 125 g ai/ha, preemergence, 0 to 100 scale (0 no effect, 100 complete control); for Foxtail, Giant plant response rating (0 to 100 scale, 0 is no effect, 100 is complete control): Preemergence, 500 g ai/ha, visual injury approx. 10 d
How it was run: as §1

[4] = test system: pigweed (Amaranthus retroflexus); experiment: Test A preemergence; conditions: for Plant response rating, Pigweed: 125 g ai/ha, preemergence, 0 to 100 scale (0 no effect, 100 complete control); for Pigweed plant response rating (0 to 100 scale, 0 is no effect, 100 is complete control): Preemergence, 500 g ai/ha, visual injury approx. 10 d
[5] = test system: ragweed (common ragweed, Ambrosia elatior); experiment: Test A preemergence; conditions: for Plant response rating, Ragweed: 125 g ai/ha, preemergence, 0 to 100 scale (0 no effect, 100 complete control); for Ragweed plant response rating (0 to 100 scale, 0 is no effect, 100 is complete control): Preemergence, 500 g ai/ha, visual injury approx. 10 d
How it was run: as §1

[6] = test system: ryegrass, Italian (Italian ryegrass, Lolium multiflorum); experiment: Test A preemergence; conditions: for Plant response rating, Ryegrass, Italian: 125 g ai/ha, preemergence, 0 to 100 scale (0 no effect, 100 complete control); for Ryegrass, Italian plant response rating (0 to 100 scale, 0 is no effect, 100 is complete control): Preemergence, 500 g ai/ha, visual injury approx. 10 d
How it was run: as §1

[7] = test system: Galium (catchweed bedstraw, Galium aparine); experiment: Test A postemergence; conditions: postemergence; for Galium plant response rating: 125 g ai/ha, visual injury rating on 0 to 100 scale (0 no effect, 100 complete control), approx. 10 d; for Plant response rating, Galium: 500 g ai/ha, 0 to 100 scale, 0 no effect, 100 complete control
How it was run: as §1

Kochia (Kochia scoparia) [8] = experiment: Test A postemergence; conditions: postemergence; for Kochia plant response rating: 125 g ai/ha, visual injury rating on 0 to 100 scale (0 no effect, 100 complete control), approx. 10 d; for Plant response rating, Kochia: 500 g ai/ha, 0 to 100 scale, 0 no effect, 100 complete control
How it was run: as §1

[9] = test system: barnyardgrass (Echinochloa crus-galli); experiment: Test A postemergence; conditions: postemergence; for Barnyardgrass plant response rating: 125 g ai/ha, visual injury rating on 0 to 100 scale (0 no effect, 100 complete control), approx. 10 d; for Plant response rating, Barnyardgrass: 500 g ai/ha, 0 to 100 scale, 0 no effect, 100 complete control
How it was run: as §1

[10] = test system: blackgrass (Alopecurus myosuroides); experiment: Test A postemergence; conditions: postemergence; for Blackgrass plant response rating: 125 g ai/ha, visual injury rating on 0 to 100 scale (0 no effect, 100 complete control), approx. 10 d; for Plant response rating, Blackgrass: 500 g ai/ha, 0 to 100 scale, 0 no effect, 100 complete control
How it was run: as §1

corn (Zea mays) = experiment: Test A postemergence; conditions: postemergence; for Corn plant response rating: 125 g ai/ha, visual injury rating on 0 to 100 scale (0 no effect, 100 complete control), approx. 10 d; for Plant response rating, Corn: 500 g ai/ha, 0 to 100 scale, 0 no effect, 100 complete control
How it was run: as §1

[11] = test system: giant foxtail (Setaria faberii); experiment: Test A postemergence; conditions: postemergence; for Foxtail, Giant plant response rating: 125 g ai/ha, visual injury rating on 0 to 100 scale (0 no effect, 100 complete control), approx. 10 d; for Plant response rating, Foxtail, Giant: 500 g ai/ha, 0 to 100 scale, 0 no effect, 100 complete control
How it was run: as §1

[12] = test system: pigweed (Amaranthus retroflexus); experiment: Test A postemergence; conditions: postemergence; for Pigweed plant response rating: 125 g ai/ha, visual injury rating on 0 to 100 scale (0 no effect, 100 complete control), approx. 10 d; for Plant response rating, Pigweed: 500 g ai/ha, 0 to 100 scale, 0 no effect, 100 complete control
How it was run: as §1

[13] = test system: ragweed (common ragweed, Ambrosia elatior); experiment: Test A postemergence; conditions: postemergence; for Ragweed plant response rating: 125 g ai/ha, visual injury rating on 0 to 100 scale (0 no effect, 100 complete control), approx. 10 d; for Plant response rating, Ragweed: 500 g ai/ha, 0 to 100 scale, 0 no effect, 100 complete control
How it was run: as §1

[14] = test system: ryegrass, Italian (Italian ryegrass, Lolium multiflorum); experiment: Test A postemergence; conditions: postemergence; for Ryegrass, Italian plant response rating: 125 g ai/ha, visual injury rating on 0 to 100 scale (0 no effect, 100 complete control), approx. 10 d; for Plant response rating, Ryegrass, Italian: 500 g ai/ha, 0 to 100 scale, 0 no effect, 100 complete control
How it was run: as §1

[15] = test system: wheat (Triticum aestivum); experiment: Test A postemergence; conditions: postemergence; for Wheat plant response rating: 125 g ai/ha, visual injury rating on 0 to 100 scale (0 no effect, 100 complete control), approx. 10 d; for Plant response rating, Wheat: 500 g ai/ha, 0 to 100 scale, 0 no effect, 100 complete control
How it was run: as §1

[16] = test system: barnyardgrass (Echinochloa crus-galli); experiment: Test B flooded paddy test; conditions: Flood, 0 to 100 scale where 0 is no effect and 100 is complete control, 13 to 15 d
How it was run: (§2)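 Percent control, visually estimated after 13–15 d in the greenhouse on a 0–100 basis, compares treated pots with untreated ones; compound was put into paddy water 3 cm above the soil when plants had two leaves.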

[17] = test system: ducksalad (Heteranthera limosa); experiment: Test B flooded paddy test; conditions: Flood, 0 to 100 scale where 0 is no effect and 100 is complete control, 13 to 15 d
How it was run: as §2

rice (Oryra sativa) = experiment: Test B flooded paddy test; conditions: Flood, 0 to 100 scale where 0 is no effect and 100 is complete control, 13 to 15 d
How it was run: as §2

[18] = test system: sedge, umbrella (small-flower umbrella sedge, Cyperus difformis); experiment: Test B flooded paddy test; conditions: Flood, 0 to 100 scale where 0 is no effect and 100 is complete control, 13 to 15 d
How it was run: as §2

[19] = test system: waterhemp (common waterhemp, Amaranthus rudis); experiment: Test C preemergence; conditions: scale 0 to 100, 0 no effect, 100 complete control
How it was run: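 Scores of 0 to 100 reflect visual comparison with control plants, where 0 means no effect and 100 complete control, made 13 to 15 d after treatment. Application was preemergence to seeds in loam-sand soil or postemergence to plants 2 to 18 cm tall in peat-based mix, using a surfactant-containing solvent formulation.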

In the case of `CN1CC(c2cccc(OC(F)(F)C(F)F)c2)C(C(=O)Nc2ccccc2C(F)(F)F)C1=O` (stereo not drawn) [Compound 431], the “Plant response rating, Kochia” value (Kochia (Kochia scoparia) [1]) is reported as 30, the “Kochia plant response rating (0 to 100 scale, 0 is no effect, 100 is complete control)” value (Kochia (Kochia scoparia) [1]) is reported as 70 and the “Plant response rating, Barnyardgrass” value [2] is reported as 90. For the same compound, the “Barnyardgrass plant response rating (0 to 100 scale, 0 is no effect, 100 is complete control)” value [2] was 90, the “Plant response rating, Foxtail, Giant” value [3] was 90 and the “Foxtail, Giant plant response rating (0 to 100 scale, 0 is no effect, 100 is complete control)” value [3] was 100. For the same compound, the “Plant response rating, Pigweed” value [4] was 70, the “Pigweed plant response rating (0 to 100 scale, 0 is no effect, 100 is complete control)” value [4] was 90 and the “Plant response rating, Ragweed” value [5] was 40. The “Ragweed plant response rating (0 to 100 scale, 0 is no effect, 100 is complete control)” value [5] was 70, the “Plant response rating, Ryegrass, Italian” value [6] was 70 and the “Ryegrass, Italian plant response rating (0 to 100 scale, 0 is no effect, 100 is complete control)” value [6] was 70. For the same compound, the “Galium plant response rating” value [7] was 60, the “Plant response rating, Galium” value [7] was 60 and the “Kochia plant response rating” value (Kochia (Kochia scoparia) [8]) was 40. The “Plant response rating, Kochia” value (Kochia (Kochia scoparia) [8]) was 50, the “Barnyardgrass plant response rating” value [9] was 80 and the “Plant response rating, Barnyardgrass” value [9] was 90. For the same compound, the “Blackgrass plant response rating” value [10] was 60, the “Plant response rating, Blackgrass” value [10] was 60 and the “Corn plant response rating” value (corn (Zea mays)) was 60. For the same compound, the “Plant response rating, Corn” value (corn (Zea mays)) was 70, the “Foxtail, Giant plant response rating” value [11] was 80 and the “Plant response rating, Foxtail, Giant” value [11] was 90. For the same compound, the “Pigweed plant response rating” value [12] was 50, the “Plant response rating, Pigweed” value [12] was 60 and the “Ragweed plant response rating” value [13] was 20. For the same compound, the “Plant response rating, Ragweed” value [13] was 60, the “Ryegrass, Italian plant response rating” value [14] was 60 and the “Plant response rating, Ryegrass, Italian” value [14] was 40. The “Wheat plant response rating” value [15] was 40, the “Plant response rating, Wheat” value [15] was 60 and the “Plant response rating, Barnyardgrass” value ([16]; 250 g ai/ha) was 40. The “Plant response rating, Ducksalad” value ([17]; 250 g ai/ha) was 100, the “Plant response rating, Rice” value (rice (Oryra sativa); 250 g ai/ha) was 25 and the “Plant response rating, Sedge, Umbrella” value ([18]; 250 g ai/ha) was 0. For the same compound, the “Plant response rating, Waterhemp” value ([19]; 62 g ai/ha) was 75, the “Plant response rating, Waterhemp” value ([19]; 125 g ai/ha) was 85 and the “Plant response rating, Waterhemp” value ([19]; 250 g ai/ha) was 90.
For `O=C1NCC(c2cccc(OC(F)F)c2)C1C(=O)Nc1ccc(F)cc1F` (stereo not drawn) [Compound 421], the “Plant response rating, Kochia” value (Kochia (Kochia scoparia) [1]) was 70, the “Kochia plant response rating (0 to 100 scale, 0 is no effect, 100 is complete control)” value (Kochia (Kochia scoparia) [1]) was 80 and the “Plant response rating, Barnyardgrass” value [2] was 90. The “Barnyardgrass plant response rating (0 to 100 scale, 0 is no effect, 100 is complete control)” value [2] was 90, the “Plant response rating, Foxtail, Giant” value [3] was 90 and the “Foxtail, Giant plant response rating (0 to 100 scale, 0 is no effect, 100 is complete control)” value [3] was 90. The “Plant response rating, Pigweed” value [4] was 20, the “Pigweed plant response rating (0 to 100 scale, 0 is no effect, 100 is complete control)” value [4] was 40 and the “Plant response rating, Ragweed” value [5] was 30. The “Ragweed plant response rating (0 to 100 scale, 0 is no effect, 100 is complete control)” value [5] was 40, the “Plant response rating, Ryegrass, Italian” value [6] was 0 and the “Ryegrass, Italian plant response rating (0 to 100 scale, 0 is no effect, 100 is complete control)” value [6] was 30. For the same compound, the “Galium plant response rating” value [7] was 50, the “Plant response rating, Galium” value [7] was 60 and the “Kochia plant response rating” value (Kochia (Kochia scoparia) [8]) was 0. For the same compound, the “Plant response rating, Kochia” value (Kochia (Kochia scoparia) [8]) was 20, the “Barnyardgrass plant response rating” value [9] was 70 and the “Plant response rating, Barnyardgrass” value [9] was 90. The “Blackgrass plant response rating” value [10] was 20, the “Plant response rating, Blackgrass” value [10] was 50 and the “Corn plant response rating” value (corn (Zea mays)) was 0. The “Plant response rating, Corn” value (corn (Zea mays)) was 70, the “Foxtail, Giant plant response rating” value [11] was 80 and the “Plant response rating, Foxtail, Giant” value [11] was 90. The “Pigweed plant response rating” value [12] was 0, the “Plant response rating, Pigweed” value [12] was 30 and the “Ragweed plant response rating” value [13] was 20. For the same compound, the “Plant response rating, Ragweed” value [13] was 30, the “Ryegrass, Italian plant response rating” value [14] was 20 and the “Plant response rating, Ryegrass, Italian” value [14] was 40. The “Wheat plant response rating” value [15] was 0, the “Plant response rating, Wheat” value [15] was 40 and the “Plant response rating, Barnyardgrass” value ([16]; 500 g ai/ha) was 75. The “Plant response rating, Ducksalad” value ([17]; 500 g ai/ha) was 100, the “Plant response rating, Rice” value (rice (Oryra sativa); 500 g ai/ha) was 15 and the “Plant response rating, Sedge, Umbrella” value ([18]; 500 g ai/ha) was 0. For the same compound, the “Plant response rating, Waterhemp” value ([19]; 62 g ai/ha) was 30, the “Plant response rating, Waterhemp” value ([19]; 125 g ai/ha) was 80 and the “Plant response rating, Waterhemp” value ([19]; 250 g ai/ha) was 85.
